{
  "source": "paper PMC7010356",
  "about": "“The thermodynamic profile and molecular interactions of a C(9)-cytisine derivative-binding acetylcholine-binding protein from Aplysia californica” (Acta Crystallographica. Section F, Structural Biology …, 2020)",
  "target": "T1, acetylcholine-binding protein (AcAChBP) (Aplysia californica, UniProt Q8WSF8)",
  "T1 construct": "recombinant AcAChBP with a C-terminal Tobacco etch virus cleavage site and His6 tag; homopentamer",
  "T1 sequence (Q8WSF8 20-236)": "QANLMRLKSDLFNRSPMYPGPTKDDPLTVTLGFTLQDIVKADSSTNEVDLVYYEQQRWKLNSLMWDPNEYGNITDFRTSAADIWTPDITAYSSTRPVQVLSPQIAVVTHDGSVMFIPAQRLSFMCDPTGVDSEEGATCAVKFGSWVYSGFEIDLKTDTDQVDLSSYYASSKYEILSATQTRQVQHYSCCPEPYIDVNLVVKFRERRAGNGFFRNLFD",
  "assay": "ITC and […] Å crystal structure",
  "data": [
    {"compound": "O=c1c(CCCO)ccc2n1C[C@@H]1CNC[C@H]2C1", "note": "[compound 4, (1R,5S)-9-(3-hydroxypropyl)-1,2,3,4,5,6-hexahydro-1,5-methano-8H-pyrido[1,2a][1,5]diazocin-8-one]", "values": [
      {"measurement": "Kd", "value": 53.3, "unit": "µM"}
    ]}
  ]
}
